Assay results as given in ChEMBL document CHEMBL1153831, “Azithromycin blocks quorum sensing and alginate polymer formation and increases the sensitivity to serum and stationary-growth-phase killing of Pseudomonas aeruginosa and attenuates chronic P. aeruginosa lung infection in Cftr(-/-) mice” (Antimicrob Agents Chemother, 2007).
Activity calls are given as the source filed them. The calls are words filed in the database; no cut-off is given here.

What was measured:
[1] = Elimination half life in Cftr-tml-Unc-TgN(FABPCFTR) cystic fibrosis mouse model at 500 mg/kg, po; type: ADME, organism-based; set-up: dose 500 mg/kg, route oral; settings: in vivo, read-out: beta t1/2 (converted)
Pseudomonas aeruginosa [2] = experiment: (§1) Antimicrobial activity in Pseudomonas aeruginosa NH57388A mucoid isolate harboring GFP-fused […] lasB gene infected in ftr-tml-Unc-TgN(FABPCFTR) cystic fibrosis mouse lungs assessed as median alginate content in lungs at 500 mg/kg, po administered 24 hrs after infection daily once for 5 days measured after 7 days postinfection; type: functional
Pseudomonas aeruginosa [3] = experiment: Increase in sensitivity of hydrogen peroxide to Pseudomonas aeruginosa NH57388A mucoid isolate expressing quorum sensing lasI assessed as increase in zone of inhibition at 12 ug/mL after 48 hrs relative to untreated bacterial control; type: functional; set-up: scale not given: the % may be the effect or the level left
Pseudomonas aeruginosa [4] = experiment: Inhibition of alginate synthesis in Pseudomonas aeruginosa NH57388A mucoid isolate supernatant assessed as uronic acid concentration in inside of dialysis bag after equilibrium dialysis at 12 ug/mL after 24 hrs by carbazole-borate assay; type: functional
Pseudomonas aeruginosa [5] = experiment: Inhibition of quorum sensing-regulated elastase production in Pseudomonas aeruginosa NH57388A mucoid isolate harboring GFP-fused […] lasB gene assessed as enzyme activity per cell at 4 ug/mL after 24 hrs relative to control; type: functional
Pseudomonas aeruginosa [6] = experiment: as §1, with “lung” for “lungs”, “fibrous spongy-like material surrounding polymorphonuclear leukocytes” for “median alginate content in lungs”, “postinfection by histopathology” for “postinfection”; type: functional, organism-based; set-up: dose 500 mg/kg
Pseudomonas aeruginosa [7] = experiment: Inhibition of alginate synthesis in Pseudomonas aeruginosa NH57388A mucoid isolate supernatant assessed as uronic acid concentration in outside of dialysis bag after equilibrium dialysis at 12 ug/mL after 24 hrs by carbazole-borate assay; type: functional
Pseudomonas aeruginosa [8] = experiment: Inhibition of quorum sensing-regulated alginate production in Pseudomonas aeruginosa NH57388A mucoid isolate harboring GFP-fused […] lasB gene assessed as enzyme activity per cell at 4 ug/mL after 24 hrs relative to control; type: functional
Pseudomonas aeruginosa [9] = experiment: Antimicrobial activity against Pseudomonas aeruginosa NH57388A mucoid isolate expressing quorum sensing lasI assessed as reduction of viable count at 12 ug/mL in absence of 2.5% human normal serum; type: functional
Pseudomonas aeruginosa [10] = experiment: as §1, with “mouse” for “mouse lungs”, “frequency of lung abscesses” for “median alginate content in lungs”; type: functional
[11] = Drug level in Cftr-tml-Unc-TgN(FABPCFTR) cystic fibrosis mouse serum at 500 mg/kg, po after 4 hrs; type: ADME, organism-based; set-up: dose 500 mg/kg, route oral; settings: read-out: Drug uptake
Pseudomonas aeruginosa [12] = experiment: Inhibition of quorum sensing-regulated chitinase production in Pseudomonas aeruginosa NH57388A mucoid isolate harboring GFP-fused […] lasB gene assessed as enzyme activity per cell at 2 ug/mL after 24 hrs relative to control; type: functional
Pseudomonas aeruginosa [13] = experiment: Inhibition of quorum sensing-regulated elastase production in Pseudomonas aeruginosa NH57388A mucoid isolate harboring GFP-fused […] lasB gene assessed as enzyme activity per cell at 2 ug/mL after 24 hrs relative to control; type: functional
Pseudomonas aeruginosa [14] = experiment: Antimicrobial activity against Pseudomonas aeruginosa NH57388A mucoid isolate after overnight incubation by E-test; type: functional
Pseudomonas aeruginosa [15] = experiment: Antimicrobial activity against Pseudomonas aeruginosa NH57388C nonmucoid isolate expressing quorum sensing lasI assessed as reduction of viable count at 12 ug/mL in presence of 2.5% human normal serum; type: functional
Pseudomonas aeruginosa [16] = experiment: Inhibition of alginate synthesis in Pseudomonas aeruginosa NH57388A mucoid isolate supernatant assessed as uronic acid fraction out of the dialysis bag of total amount of uronic acids after equilibrium dialysis at 12 ug/mL after 24 hrs by carbazole-borate assay; type: functional; set-up: scale not given: the % may be the effect or the level left
Pseudomonas aeruginosa [17] = experiment: Antimicrobial activity against Pseudomonas aeruginosa NH57388A mucoid isolate assessed as reduction of viable count in stationary phase at 2 ug/mL after 8 hrs; type: functional
Pseudomonas aeruginosa [18] = experiment: Inhibition of quorum sensing-regulated pyocyanin production in Pseudomonas aeruginosa NH57388A mucoid isolate harboring GFP-fused […] lasB gene assessed as enzyme activity per cell at 8 ug/mL after 24 hrs relative to control; type: functional
Pseudomonas aeruginosa [19] = experiment: Antimicrobial activity against Pseudomonas aeruginosa NH57388A mucoid isolate harboring GFP-fused […] lasB gene infected in ftr-tml-Unc-TgN(FABPCFTR) cystic fibrosis mouse lungs assessed as reduction in GFP signal at 250 mg/kg, iv administered 24 hrs after infection measured after 24 hrs; type: functional, organism-based; set-up: dose 250 mg/kg
[20] = Drug level in Cftr-tml-Unc-TgN(FABPCFTR) cystic fibrosis mouse serum at 500 mg/kg, po after 2 hrs; type: ADME, organism-based; set-up: dose 500 mg/kg, route oral; settings: read-out: Drug uptake
Pseudomonas aeruginosa [21] = experiment: Antimicrobial activity against quorum sensing lasI-deficient isogenic Pseudomonas aeruginosa NH57388D mucoid isolate assessed as reduction of viable count at 12 ug/mL in absence of 2.5% human normal serum; type: functional
Pseudomonas aeruginosa [22] = experiment: Antimicrobial activity against quorum sensing lasI-deficient isogenic Pseudomonas aeruginosa NH57388E nonmucoid isolate assessed as reduction of viable count at 12 ug/mL in absence of 2.5% human normal serum; type: functional
[23] = Drug level in Cftr-tml-Unc-TgN(FABPCFTR) cystic fibrosis mouse serum at 500 mg/kg, po after 0.5 hrs; type: ADME, organism-based; set-up: dose 500 mg/kg, route oral; settings: read-out: Drug uptake
Pseudomonas aeruginosa [24] = experiment: as §1, with “activity against” for “activity in”, “mouse” for “mouse lungs”, “as mortality” for “as median alginate content in lungs”, “hrs postinfection” for “hrs after infection”; type: functional
[25] = Elimination half life in human; type: ADME, organism-based; settings: in vivo, read-out: beta t1/2 (converted)
Pseudomonas aeruginosa [26] = experiment: Inhibition of quorum sensing-regulated alginate production in Pseudomonas aeruginosa NH57388A mucoid isolate harboring GFP-fused […] lasB gene assessed as enzyme activity per cell at 8 ug/mL after 24 hrs relative to control; type: functional
Pseudomonas aeruginosa [27] = experiment: as §1, with “lung” for “lungs”, “debris-like granular material surrounding polymorphonuclear leukocytes” for “median alginate content in lungs”, “postinfection by histopathology” for “postinfection”; type: functional, organism-based; set-up: dose 500 mg/kg
Pseudomonas aeruginosa [28] = experiment: Inhibition of quorum sensing-regulated pyocyanin production in Pseudomonas aeruginosa NH57388A mucoid isolate harboring GFP-fused […] lasB gene assessed as enzyme activity per cell at 4 ug/mL after 24 hrs relative to control; type: functional
Pseudomonas aeruginosa [29] = experiment: Inhibition of alginate synthesis in Pseudomonas aeruginosa NH57388A mucoid isolate supernatant assessed as uronic acid concentration in dialysis bag before exhaustive dialysis at 12 ug/mL after 24 hrs by carbazole-borate assay; type: functional
Pseudomonas aeruginosa [30] = experiment: Increase in sensitivity of hydrogen peroxide to quorum sensing lasI-deficient isogenic Pseudomonas aeruginosa NH57388A mucoid isolate mutant assessed as increase in zone of inhibition at 12 ug/mL after 48 hrs relative to untreated bacterial control; type: functional; set-up: scale not given: the % may be the effect or the level left
Pseudomonas aeruginosa [31] = experiment: Inhibition of alginate synthesis in Pseudomonas aeruginosa NH57388A mucoid isolate supernatant assessed as uronic acid fraction out of the dialysis bag of total amount of uronic acids after exhaustive dialysis at 12 ug/mL after 24 hrs by carbazole-borate assay; type: functional; set-up: scale not given: the % may be the effect or the level left
Mus musculus = species on record: Mus musculus; experiment: Elimination half life in healthy mouse; type: ADME, organism-based; settings: in vivo
Pseudomonas aeruginosa [32] = experiment: Inhibition of alginate synthesis in Pseudomonas aeruginosa NH57388A mucoid isolate supernatant assessed as uronic acid concentration in dialysis bag after exhaustive dialysis at 12 ug/mL after 24 hrs by carbazole-borate assay; type: functional
Pseudomonas aeruginosa [33] = experiment: Antimicrobial activity against Pseudomonas aeruginosa NH57388A mucoid isolate assessed as reduction of viable count in exponential phase at 64 ug/mL after 8 hrs; type: functional
Pseudomonas aeruginosa [34] = experiment: Inhibition of quorum sensing-regulated pyocyanin production in Pseudomonas aeruginosa NH57388A mucoid isolate harboring GFP-fused […] lasB gene assessed as enzyme activity per cell at 2 ug/mL after 24 hrs relative to control; type: functional
Pseudomonas aeruginosa [35] = experiment: Antimicrobial activity against quorum sensing lasI-deficient isogenic Pseudomonas aeruginosa NH57388D mucoid isolate assessed as reduction of viable count at 12 ug/mL in presence of 2.5% human normal serum; type: functional
Pseudomonas aeruginosa [36] = experiment: Antimicrobial activity against quorum sensing lasI-deficient isogenic nonmucoid Pseudomonas aeruginosa NH57388E mutant assessed as reduction of viable count at 12 ug/mL in presence of 2.5% human normal serum; type: functional
Pseudomonas aeruginosa [37] = experiment: Antimicrobial activity against Pseudomonas aeruginosa NH57388A mucoid isolate expressing quorum sensing lasI assessed as reduction of viable count at 12 ug/mL in presence of 2.5% human normal serum; type: functional
Pseudomonas aeruginosa [38] = experiment: Inhibition of quorum sensing-regulated elastase production in Pseudomonas aeruginosa NH57388A mucoid isolate harboring GFP-fused […] lasB gene assessed as enzyme activity per cell at 8 ug/mL after 24 hrs relative to control; type: functional
Pseudomonas aeruginosa [39] = experiment: Antimicrobial activity against Pseudomonas aeruginosa NH57388A mucoid isolate assessed as reduction of viable count in stationary phase at 16 ug/mL after 8 hrs; type: functional
Pseudomonas aeruginosa [40] = experiment: Antimicrobial activity against Pseudomonas aeruginosa NH57388A mucoid isolate assessed as reduction of viable count in exponential phase at 256 ug/mL after 8 hrs; type: functional
Pseudomonas aeruginosa [41] = experiment: Antimicrobial activity against Pseudomonas aeruginosa NH57388C nonmucoid isolate expressing quorum sensing lasI assessed as reduction of viable count at 12 ug/mL in absence of 2.5% human normal serum; type: functional
Pseudomonas aeruginosa [42] = experiment: Toxicity in Pseudomonas aeruginosa NH57388A mucoid isolate harboring GFP-fused […] lasB gene assessed as growth rate at 2 to 12 ug/mL after 14 hrs by molecular technology relative to control; type: organism-based
Pseudomonas aeruginosa [43] = experiment: Inhibition of quorum sensing-regulated chitinase production in Pseudomonas aeruginosa NH57388A mucoid isolate harboring GFP-fused […] lasB gene assessed as enzyme activity per cell at 4 ug/mL after 24 hrs relative to control; type: functional
[44] = Drug level in Cftr-tml-Unc-TgN(FABPCFTR) cystic fibrosis mouse serum at 500 mg/kg, po after 1 hr; type: ADME, organism-based; set-up: dose 500 mg/kg, route oral; settings: read-out: Drug uptake
Pseudomonas aeruginosa [45] = experiment: Inhibition of quorum sensing-regulated chitinase production in Pseudomonas aeruginosa NH57388A mucoid isolate harboring GFP-fused […] lasB gene assessed as enzyme activity per cell at 8 ug/mL after 24 hrs relative to control; type: functional
Pseudomonas aeruginosa [46] = experiment: as §1, with “lung” for “lungs”, “scattered residues of” for “median”, “without bacteria” for “content in lungs”, “postinfection by histopathology” for “postinfection”; type: functional, organism-based; set-up: dose 500 mg/kg
Pseudomonas aeruginosa [47] = experiment: Inhibition of quorum sensing-regulated alginate production in Pseudomonas aeruginosa NH57388A mucoid isolate harboring GFP-fused […] lasB gene assessed as enzyme activity per cell at 2 ug/mL after 24 hrs relative to control; type: functional
Pseudomonas aeruginosa [48] = experiment: Inhibition of quorum sensing in Pseudomonas aeruginosa NH57388A mucoid isolate harboring GFP-fused […] lasB gene assessed as suppression of GFP expression after 14 hrs by molecular technology; type: functional, organism-based

CC[C@H]1OC(=O)[C@H](C)[C@@H](O[C@H]2C[C@@](C)(OC)[C@@H](O)[C@H](C)O2)[C@H](C)[C@@H](O[C@@H]2O[C@H](C)C[C@H](N(C)C)[C@H]2O)[C@](C)(O)C[C@@H](C)CN(C)[C@H](C)[C@@H](O)[C@]1(C)O [AZITHROMYCIN]
half-life [1]: 2.3 h
Activity (Pseudomonas aeruginosa [2]): 10 µg/mL
Activity (Pseudomonas aeruginosa [3]): 31%
Activity (Pseudomonas aeruginosa [4]): 316 µg/mL
inhibition at 4 µg/mL (Pseudomonas aeruginosa [5]): 45%
Activity (Pseudomonas aeruginosa [6]): Active
Activity (Pseudomonas aeruginosa [7]): 143 µg/mL
inhibition at 4 µg/mL (Pseudomonas aeruginosa [8]): 56%
CFU (Pseudomonas aeruginosa [9]): 31 ×10⁶ /ml
Activity (Pseudomonas aeruginosa [10]): 32%
concentration at 4 h [11]: 1700 ng/mL
inhibition at 2 µg/mL (Pseudomonas aeruginosa [12]): 66%
inhibition at 2 µg/mL (Pseudomonas aeruginosa [13]): 77%
MIC (Pseudomonas aeruginosa [14]): > 256 µg/mL
CFU (Pseudomonas aeruginosa [15]): 0 mL
Activity (Pseudomonas aeruginosa [16]): 31.2%
Activity (Pseudomonas aeruginosa [17]): 88%
inhibition at 8 µg/mL (Pseudomonas aeruginosa [18]): 16%
Activity (Pseudomonas aeruginosa [19]): Active
concentration at 2 h [20]: 3100 ng/mL
CFU (Pseudomonas aeruginosa [21]): 55 ×10⁶ /ml
CFU (Pseudomonas aeruginosa [22]): 3.8 ×10⁷ /ml
concentration at 0.5 h [23]: 2900 ng/mL
Activity (Pseudomonas aeruginosa [24]): 24%
half-life [25]: 68 h
inhibition at 8 µg/mL (Pseudomonas aeruginosa [26]): 52%
Activity (Pseudomonas aeruginosa [27]): Active
inhibition at 4 µg/mL (Pseudomonas aeruginosa [28]): 32%
Activity (Pseudomonas aeruginosa [29]): 316 µg/mL
Activity (Pseudomonas aeruginosa [30]): 43%
Activity (Pseudomonas aeruginosa [31]): 67.4%
beta t1/2 (Mus musculus): 0.733 h
Activity (Pseudomonas aeruginosa [32]): 103 µg/mL
Activity (Pseudomonas aeruginosa [33]): 87%
inhibition at 2 µg/mL (Pseudomonas aeruginosa [34]): 43%
CFU (Pseudomonas aeruginosa [35]): 8.6 ×10⁵ /ml
CFU (Pseudomonas aeruginosa [36]): 2 ×10³ /ml
CFU (Pseudomonas aeruginosa [37]): 2.5 ×10² /ml
inhibition at 8 µg/mL (Pseudomonas aeruginosa [38]): 51%
Activity (Pseudomonas aeruginosa [39]): 99%
Activity (Pseudomonas aeruginosa [40]): 99%
CFU (Pseudomonas aeruginosa [41]): 110 ×10⁵ /ml
Activity (Pseudomonas aeruginosa [42]): Non-toxic
inhibition at 4 µg/mL (Pseudomonas aeruginosa [43]): 15%
concentration at 1 h [44]: 2900 ng/mL
inhibition at 8 µg/mL (Pseudomonas aeruginosa [45]): 10%
Activity (Pseudomonas aeruginosa [46]): Active
inhibition at 2 µg/mL (Pseudomonas aeruginosa [47]): 63%
Activity (Pseudomonas aeruginosa [48]): Dose-dependent effect
